Test results published in patent publication US20250057969A1, “CONJUGATES COMPRISING CLEAVABLE LINKERS” (priority 2023, published 2025).
Numbered stars: 1 amine (or outer) side, 2 acyl side, 3 side chain; on linkers, the order of the positions; unused ones are H or OH. Square brackets hold non-standard residues; d marks the D form. Peptide text beside a SMILES is read from it. * marks the point of attachment. X1 = O=C(O)[C@H]1O[C@@H](Oc2ccc(COC(=O)[*:2])cc2N[*:1])[C@H](O)[C@@H](O)[C@@H]1O; CH3O(CH2CH2O)11CH2CH2CO = COCCOCCOCCOCCOCCOCCOCCOCCOCCOCCOCCOCCC(=O)*; Dolaproine = CO[C@@H]([C@@H]1CCCN1)[C@@H](C)C(=O)O; Hexanoyl(6-maleimido) = O=C1C=CC(=O)N1CCCCCC(=O)*; Propanoyl(3-maleimido) = O=C1C=CC(=O)N1CCC(=O)*; Dil = CC[C@H](C)[C@H](NC)[C@@H](CC(=O)O)OC; PABC = O=C(OCc1ccc(N[*:1])cc1)[*:2]; X2 = C[C@@H](N*)[C@@H](O)c1ccccc1; Cit = NC(=O)NCCC[C@H](N)C(=O)O; NMeV = CN[C@H](C(=O)O)C(C)C; βAla = NCCC(=O)O

Assays:
Format in all cases: biochemical
[1] = molecular target: T1, Human neutrophil elastase (Homo sapiens, UniProt P08246); experiment: Linker-Payload enzymatic cleavage with human neutrophil elastase; settings: 0.67 μM enzyme, 67 μM Linker-Payload, pH 7.4, 37° C., 24 hours
T1 sequence (P08246 30-267): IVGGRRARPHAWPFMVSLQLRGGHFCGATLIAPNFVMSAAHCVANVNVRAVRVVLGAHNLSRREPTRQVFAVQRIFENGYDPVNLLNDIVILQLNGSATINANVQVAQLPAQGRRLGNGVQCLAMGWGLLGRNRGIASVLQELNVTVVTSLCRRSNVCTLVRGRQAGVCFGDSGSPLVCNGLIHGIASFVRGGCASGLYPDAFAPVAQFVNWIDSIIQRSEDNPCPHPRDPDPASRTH
Procedure: (§1) 0.67 μM Human neutrophil elastase was added to 67 μM Linker-Payload (1:100) in Tris Buffered Saline, pH 7.4. The mixture was incubated at 37° C. for a duration of 24 hours with intermediate timepoints collected and diluted 1:1 with buffer containing acetonitrile, water and formic acid. The sample was measured by reverse-phase HPLC with data quantified against a standard curve.

Cathepsin B = Cathepsin B (Homo sapiens, UniProt P07858); experiment: Linker-Payload enzymatic cleavage with Cathepsin B; settings: 0.14 μM enzyme, 70 μM Linker-Payload, pH 5.0, 37° C., 24 hours
Procedure: as §1, with “0.14” for “0.67”, “Cathepsin B” for “Human neutrophil elastase”, “70” for “67”, “(1:500)” for “(1:100)”, “50 mM sodium acetate, 1 mM DTT,” for “Tris Buffered Saline,”, “5.0.” for “7.4.”

β-glucuronidase = molecular target: T2, β-glucuronidase (Homo sapiens, UniProt P08236); experiment: Linker-Payload enzymatic cleavage with β-glucuronidase; settings: 4 nM enzyme, 40 μM Linker-Payload, pH 5.0, 37° C., 24 hours
T2 sequence (P08236 23-651): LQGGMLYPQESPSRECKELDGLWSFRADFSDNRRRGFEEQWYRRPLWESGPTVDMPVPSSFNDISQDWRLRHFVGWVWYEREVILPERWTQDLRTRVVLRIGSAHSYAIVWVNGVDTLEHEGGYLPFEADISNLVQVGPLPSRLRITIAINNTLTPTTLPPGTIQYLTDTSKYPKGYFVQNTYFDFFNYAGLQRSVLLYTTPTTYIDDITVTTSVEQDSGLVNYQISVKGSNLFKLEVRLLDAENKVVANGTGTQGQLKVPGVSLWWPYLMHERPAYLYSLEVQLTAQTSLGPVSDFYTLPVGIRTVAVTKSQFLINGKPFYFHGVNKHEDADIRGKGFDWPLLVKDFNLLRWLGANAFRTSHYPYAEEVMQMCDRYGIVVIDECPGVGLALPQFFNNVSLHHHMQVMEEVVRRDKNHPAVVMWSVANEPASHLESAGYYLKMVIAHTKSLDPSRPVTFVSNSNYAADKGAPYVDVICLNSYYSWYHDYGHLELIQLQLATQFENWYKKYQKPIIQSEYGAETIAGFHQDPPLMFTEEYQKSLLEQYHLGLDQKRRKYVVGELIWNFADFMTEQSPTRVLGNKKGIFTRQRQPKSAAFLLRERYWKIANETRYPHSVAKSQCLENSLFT
Procedure: as §1, with “4 nM β-glucuronidase” for “0.67 μM Human neutrophil elastase”, “40” for “67”, “(1:10,000)” for “(1:100)”, “50 mM sodium acetate,” for “Tris Buffered Saline,”, “5.0.” for “7.4.”

CC[C@H](C)[C@@H]([C@@H](CC(=O)N1CCC[C@H]1[C@H](OC)[C@@H](C)C(=O)N[C@H](C)[C@@H](O)c1ccccc1)OC)N(C)C(=O)[C@@H](NC(=O)[C@H](C(C)C)N(C)C(=O)OCc1ccc(NC(=O)[C@H](CCCNC(N)=O)NC(=O)[C@@H](NC(=O)CCCCCN2C(=O)C=CC2=O)C(C)C)cc1)C(C)C [LP1, maleimidocaproyl-valine-citrulline-p-amrninobenzoyloxycajrbonyl-MMAE, reference compound] ({Hexanoyl(6-maleimido)}-V[Cit][PABC][NMeV]V[Dil][Dolaproine]-X2)
cleavage in the presence of human neutrophil elastase (FIG. 1C) [1]: underwent more rapid cleavage

CC[C@H](C)[C@@H]([C@@H](CC(=O)N1CCC[C@H]1[C@H](OC)[C@@H](C)C(=O)N[C@H](C)[C@@H](O)c1ccccc1)OC)N(C)C(=O)[C@@H](NC(=O)[C@H](C(C)C)N(C)C(=O)OCc1ccc(O[C@@H]2O[C@H](C(=O)O)[C@@H](O)[C@H](O)[C@H]2O)c(CNC(=O)CCNC(=O)COC2(CNC(=O)CCN3C(=O)C=CC3=O)CN(C(=O)CCOCCOCCOCCOCCOCCOCCOCCOCCOCCOCCOCCOC)C2)c1)C(C)C [LP2]
cleavage in the presence of cathepsin B (FIG. 1B) (Cathepsin B): neither LP2 nor LP3 underwent rapid cleavage | cleavage in the presence of human neutrophil elastase (FIG. 1C) [1]: did not undergo rapid cleavage | cleavage in the presence of human neutrophil elastase (FIG. 1D) [1]: did not undergo rapid cleavage | cleavage in the presence of β-glucuronidase (FIG. 1A) (β-glucuronidase): underwent significant cleavage | cleavage rate in the presence of β-glucuronidase relative to LP7 and LP8 (FIG. 1E) (β-glucuronidase): underwent slower cleavage than both LP7 (Reference) and LP8 (Reference)

CC[C@H](C)[C@@H]([C@@H](CC(=O)N1CCC[C@H]1[C@H](OC)[C@@H](C)C(=O)N[C@H](C)[C@@H](O)c1ccccc1)OC)N(C)C(=O)[C@@H](NC(=O)[C@H](C(C)C)N(C)C(=O)OCc1ccc(O[C@@H]2O[C@H](C(=O)O)[C@@H](O)[C@H](O)[C@H]2O)c(CNC(=O)COC2(CNC(=O)CCN3C(=O)C=CC3=O)CN(C(=O)CCOCCOCCOCCOCCOCCOCCOCCOCCOCCOCCOCCOC)C2)c1)C(C)C [LP3]
cleavage in the presence of cathepsin B (FIG. 1B) (Cathepsin B): neither LP2 nor LP3 underwent rapid cleavage | cleavage in the presence of human neutrophil elastase (FIG. 1C) [1]: did not undergo rapid cleavage | cleavage in the presence of β-glucuronidase (FIG. 1A) (β-glucuronidase): underwent significant cleavage

CC[C@H](C)[C@@H]([C@@H](CC(=O)N1CCC[C@H]1[C@H](OC)[C@@H](C)C(=O)N[C@H](C)[C@@H](O)c1ccccc1)OC)N(C)C(=O)[C@@H](NC(=O)[C@H](C(C)C)N(C)C(=O)OCc1ccc(O[C@@H]2O[C@H](C(=O)O)[C@@H](O)[C@H](O)[C@H]2O)c(CNC(=O)CCNC(=O)[C@H](CCCCNC(=O)CCOCCOCCOCCOCCOCCOCCOCCOCCOCCOCCOCCOC)NC(=O)CCN2C(=O)C=CC2=O)c1)C(C)C [LP7, reference compound]
cleavage in the presence of human neutrophil elastase (FIG. 1D) [1]: did not undergo rapid cleavage

CC[C@H](C)[C@@H]([C@@H](CC(=O)N1CCC[C@H]1[C@H](OC)[C@@H](C)C(=O)N[C@H](C)[C@@H](O)c1ccccc1)OC)N(C)C(=O)[C@@H](NC(=O)[C@H](C(C)C)N(C)C(=O)OCc1ccc(O[C@@H]2O[C@H](C(=O)O)[C@@H](O)[C@H](O)[C@H]2O)c(NC(=O)CCNC(=O)[C@H](CCCCNC(=O)CCOCCOCCOCCOCCOCCOCCOCCOCCOCCOCCOCCOC)NC(=O)CCN2C(=O)C=CC2=O)c1)C(C)C [LP8, reference compound] ({Propanoyl(3-maleimido)}-K(CH3O(CH2CH2O)11CH2CH2CO)[βAla][X1][NMeV]V[Dil][Dolaproine]-X2)
cleavage in the presence of human neutrophil elastase (FIG. 1D) [1]: did not undergo rapid cleavage
